Test results reported in PubChem BioAssay (NCI).
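Five compound concentrations were applied to cells in 96-well plates for 48 hours; endpoints were derived by simple linear interpolation of the resulting dose-response curve. GI50: concentration for 50% inhibition of growth. TGI is the concentration that stops growth completely.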

What was measured:
Assay in all cases: NCI tumour cell line growth inhibition, 48 h
786-0 renal = test system: 786-0 renal
A498 renal = test system: A498 renal
A549 NSCLC = test system: A549 NSCLC
ACHN renal = test system: ACHN renal
BT-549 breast = test system: BT-549 breast
CAKI-1 renal = test system: CAKI-1 renal
CCRF-CEM leukemia = test system: CCRF-CEM leukemia
COLO 205 colon = test system: COLO 205 colon
DU-145 prostate = test system: DU-145 prostate
EKVX NSCLC = test system: EKVX NSCLC
HCC-2998 colon = test system: HCC-2998 colon
HCT-116 colon = test system: HCT-116 colon
HCT-15 colon = test system: HCT-15 colon
HL-60(TB) leukemia = test system: HL-60(TB) leukemia
HOP-62 NSCLC = test system: HOP-62 NSCLC
HOP-92 NSCLC = test system: HOP-92 NSCLC
HS 578T breast = test system: HS 578T breast
HT29 colon = test system: HT29 colon
IGROV1 ovarian = test system: IGROV1 ovarian
K-562 leukemia = test system: K-562 leukemia
KM12 colon = test system: KM12 colon
LOX IMVI melanoma = test system: LOX IMVI melanoma
M14 melanoma = test system: M14 melanoma
MALME-3M melanoma = test system: MALME-3M melanoma
MCF7 breast = test system: MCF7 breast
MDA-MB-231 breast = test system: MDA-MB-231 breast
MDA-MB-435 = test system: MDA-MB-435
MDA-MB-468 breast = test system: MDA-MB-468 breast
MOLT-4 leukemia = test system: MOLT-4 leukemia
NCI-H226 lung = test system: NCI-H226 lung
NCI-H23 lung = test system: NCI-H23 lung
NCI-H460 lung = test system: NCI-H460 lung
NCI-H522 lung = test system: NCI-H522 lung
NCI/ADR-RES ovarian = test system: NCI/ADR-RES ovarian
OVCAR-3 ovarian = test system: OVCAR-3 ovarian
OVCAR-4 ovarian = test system: OVCAR-4 ovarian
OVCAR-5 ovarian = test system: OVCAR-5 ovarian
OVCAR-8 ovarian = test system: OVCAR-8 ovarian
PC-3 prostate = test system: PC-3 prostate
RPMI-8226 leukemia = test system: RPMI-8226 leukemia
RXF 393 renal = test system: RXF 393 renal
SF-268 CNS = test system: SF-268 CNS
SF-295 CNS = test system: SF-295 CNS
SF-539 CNS = test system: SF-539 CNS
SK-MEL-2 melanoma = test system: SK-MEL-2 melanoma
SK-MEL-28 melanoma = test system: SK-MEL-28 melanoma
SK-MEL-5 melanoma = test system: SK-MEL-5 melanoma
SK-OV-3 ovarian = test system: SK-OV-3 ovarian
SN12C renal = test system: SN12C renal
SNB-19 CNS = test system: SNB-19 CNS
SNB-75 CNS = test system: SNB-75 CNS
SR leukemia = test system: SR leukemia
SW-620 colon = test system: SW-620 colon
T-47D breast = test system: T-47D breast
TK-10 renal = test system: TK-10 renal
U251 CNS = test system: U251 CNS
UACC-257 melanoma = test system: UACC-257 melanoma
UACC-62 melanoma = test system: UACC-62 melanoma
UO-31 renal = test system: UO-31 renal

COc1cc2c(c(OC)c1OC)C(=O)CC(c1cccc(NC(=O)c3cc(NC(=O)[C@H](C)N)ccc3Cl)c1)O2 (stereo partly drawn)
GI50 (786-0 renal): 19.1 µM
TGI (786-0 renal): 36.7 µM
GI50 (A498 renal): 26 µM
TGI (A498 renal): 90.5 µM
GI50 (A549 NSCLC): 15.9 µM
TGI (A549 NSCLC): 33.3 µM
GI50 (ACHN renal): 15.9 µM
TGI (ACHN renal): 31 µM
GI50 (BT-549 breast): 15 µM
TGI (BT-549 breast): 32 µM
GI50 (CAKI-1 renal): 32.7 µM
TGI (CAKI-1 renal): > 100 µM
GI50 (CCRF-CEM leukemia): 18.5 µM
TGI (CCRF-CEM leukemia): 65 µM
GI50 (COLO 205 colon): 17.1 µM
TGI (COLO 205 colon): 33.2 µM
GI50 (DU-145 prostate): 17.5 µM
TGI (DU-145 prostate): 34.5 µM
GI50 (EKVX NSCLC): 17.2 µM
TGI (EKVX NSCLC): 35 µM
GI50 (HCC-2998 colon): 16.9 µM
TGI (HCC-2998 colon): 31.3 µM
GI50 (HCT-116 colon): 17.5 µM
TGI (HCT-116 colon): 35.6 µM
GI50 (HCT-15 colon): 12 µM
TGI (HCT-15 colon): 26.9 µM
GI50 (HL-60(TB) leukemia): 18.8 µM
TGI (HL-60(TB) leukemia): 37.5 µM
GI50 (HOP-62 NSCLC): 15.1 µM
TGI (HOP-62 NSCLC): 30.6 µM
GI50 (HOP-92 NSCLC): 14.5 µM
TGI (HOP-92 NSCLC): 48.9 µM
GI50 (HS 578T breast): 20 µM
TGI (HS 578T breast): 59.3 µM
GI50 (HT29 colon): 18.6 µM
TGI (HT29 colon): 37.2 µM
GI50 (IGROV1 ovarian): 16.6 µM
TGI (IGROV1 ovarian): 32.9 µM
GI50 (K-562 leukemia): 7.31 µM
TGI (K-562 leukemia): 91.9 µM
GI50 (KM12 colon): 19.3 µM
TGI (KM12 colon): 37.9 µM
GI50 (LOX IMVI melanoma): 14.5 µM
TGI (LOX IMVI melanoma): 29.6 µM
GI50 (M14 melanoma): 15.5 µM
TGI (M14 melanoma): 32.6 µM
GI50 (MALME-3M melanoma): 14.2 µM
TGI (MALME-3M melanoma): 27.7 µM
GI50 (MCF7 breast): 12.9 µM
TGI (MCF7 breast): 26.8 µM
GI50 (MDA-MB-231 breast): 14.6 µM
TGI (MDA-MB-231 breast): 28.5 µM
GI50 (MDA-MB-435): 7.81 µM
TGI (MDA-MB-435): 21.4 µM
GI50 (MDA-MB-468 breast): 13.5 µM
TGI (MDA-MB-468 breast): 28.5 µM
GI50 (MOLT-4 leukemia): 11 µM
TGI (MOLT-4 leukemia): 34.6 µM
GI50 (NCI-H226 lung): 16.8 µM
TGI (NCI-H226 lung): 38.6 µM
GI50 (NCI-H23 lung): 15.6 µM
TGI (NCI-H23 lung): 31.2 µM
GI50 (NCI-H460 lung): 15.3 µM
TGI (NCI-H460 lung): 30.6 µM
GI50 (NCI-H522 lung): 11.3 µM
TGI (NCI-H522 lung): 26 µM
GI50 (NCI/ADR-RES ovarian): 16.2 µM
TGI (NCI/ADR-RES ovarian): 47 µM
GI50 (OVCAR-3 ovarian): 17.5 µM
TGI (OVCAR-3 ovarian): 46.7 µM
GI50 (OVCAR-4 ovarian): 15.6 µM
TGI (OVCAR-4 ovarian): 47 µM
GI50 (OVCAR-5 ovarian): 18.3 µM
TGI (OVCAR-5 ovarian): 34.6 µM
GI50 (OVCAR-8 ovarian): 16.1 µM
TGI (OVCAR-8 ovarian): 41.7 µM
GI50 (PC-3 prostate): 17.2 µM
TGI (PC-3 prostate): 69.5 µM
GI50 (RPMI-8226 leukemia): 7.29 µM
TGI (RPMI-8226 leukemia): 51.7 µM
GI50 (RXF 393 renal): 18.6 µM
TGI (RXF 393 renal): 37.1 µM
GI50 (SF-268 CNS): 18 µM
TGI (SF-268 CNS): 42.8 µM
GI50 (SF-295 CNS): 16.3 µM
TGI (SF-295 CNS): 29.9 µM
GI50 (SF-539 CNS): 15.5 µM
TGI (SF-539 CNS): 28.8 µM
GI50 (SK-MEL-2 melanoma): 14.8 µM
TGI (SK-MEL-2 melanoma): 33.2 µM
GI50 (SK-MEL-28 melanoma): 16.6 µM
TGI (SK-MEL-28 melanoma): 30.2 µM
GI50 (SK-MEL-5 melanoma): 15.5 µM
TGI (SK-MEL-5 melanoma): 29.4 µM
GI50 (SK-OV-3 ovarian): 18.3 µM
TGI (SK-OV-3 ovarian): 42.2 µM
GI50 (SN12C renal): 14.1 µM
TGI (SN12C renal): 30.9 µM
GI50 (SNB-19 CNS): 15.8 µM
TGI (SNB-19 CNS): 29.2 µM
GI50 (SNB-75 CNS): 13.3 µM
TGI (SNB-75 CNS): 65.1 µM
GI50 (SR leukemia): 5.45 µM
TGI (SR leukemia): 39.2 µM
GI50 (SW-620 colon): 15.7 µM
TGI (SW-620 colon): 30.2 µM
GI50 (T-47D breast): 8.07 µM
TGI (T-47D breast): 29 µM
GI50 (TK-10 renal): 19.8 µM
TGI (TK-10 renal): 42.7 µM
GI50 (U251 CNS): 13.9 µM
TGI (U251 CNS): 28 µM
GI50 (UACC-257 melanoma): 14.4 µM
TGI (UACC-257 melanoma): 29.5 µM
GI50 (UACC-62 melanoma): 12.3 µM
TGI (UACC-62 melanoma): 24.9 µM
GI50 (UO-31 renal): 12 µM
TGI (UO-31 renal): 24.7 µM
